From patent US10202349B2, “Asymmetric bis-acridines with antitumour activity and their uses” (POLITECHNIKA GDAŃSKA, priority 2015, dated 2019)
pEC50: −log10 of the molar value. Where “and” joins values, the source holds several entries; their conditions need not be identical. Equal entries are not always repeated.

Legend:
HT-29 = experiment: Cytotoxic activity in vitro, SRB; format: cell-based, human
In short: (§1)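 SRB read-out, NCI method; human cancer lines; EC50 = conc. giving 50% growth inhibition vs control.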

H-460 = experiment: Cytotoxic activity in vitro, SRB; format: cell-based, human
In short: as §1

PC-3 = experiment: Cytotoxic activity in vitro, SRB; format: cell-based, human
In short: as §1

AsPC-1 = experiment: Cytotoxic activity in vitro, SRB; format: cell-based, human
In short: as §1

DU-145 = experiment: Cytotoxic activity in vitro, SRB; format: cell-based, human
In short: as §1

PANC-1 = experiment: Cytotoxic activity in vitro, SRB; format: cell-based, human
In short: as §1

MDA-MB-231 = experiment: Cytotoxic activity in vitro, SRB; format: cell-based, human
In short: as §1

HCT-116 = experiment: Cytotoxic activity in vitro, SRB; format: cell-based, human
In short: as §1

UM-UC-3 = experiment: Cytotoxic activity in vitro, SRB; format: cell-based, human
In short: as §1

MiaPaCa-2 = experiment: Cytotoxic activity in vitro, SRB; format: cell-based, human
In short: as §1

BxPC-3 = experiment: Cytotoxic activity in vitro, SRB; format: cell-based, human
In short: as §1

MCF-7 = experiment: Cytotoxic activity in vitro, SRB; format: cell-based, human
In short: as §1

MDA MB 231 = experiment: Anti-neoplasmic activity against xenograft in hairless mice; format: in vivo; conditions: series 19, i.v.
In short: (§2)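 Human tumour cells (5×10^6 per mouse) implanted subcutaneously in 5-week female nude mice; randomised at ~100–200 mm^3 tumour volume. Dosing i.v. or i.p., twice weekly (thrice for fast growers) over 4 weeks, three dose levels. Growth inhibition computed from volume change versus controls.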

UM UC 3 = experiment: as above; format: in vivo; conditions: series 11, i.v., day 23
In short: as §2

H 460 = experiment: as above; format: in vivo
In short: (§3)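 Mice bearing subcutaneous human tumours were randomised once tumours reached about 100 or 200 mm^3, then treated intravenously twice weekly for four weeks, with some series given intraperitoneally. Tumour length and width were measured twice weekly to derive volume and inhibition relative to controls.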

PANC 1 = experiment: as above; format: in vivo
In short: as §3

DU 145 = experiment: as above; format: in vivo
In short: (§4)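 Female 5-week nude mice (Crl:Nu-Foxn1nu) implanted s.c. with 5×10^6 tumour cells, dosed from ~100–200 mm^3 tumours at three doses, i.v. (some series i.p.) twice weekly (thrice for fast tumours) for 4 weeks. Calipered volumes gave TGI% = 100 − (ΔVT/ΔVC × 100), scored after dosing ended.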

Capan-2 = experiment: Cytotoxic activity in vitro, SRB; format: cell-based, human
In short: as §1

PC 3 = experiment: Anti-neoplasmic activity against xenograft in hairless mice; format: in vivo; conditions: single 1 mg/kg, total 8 mg/kg, day 39
In short: as §4

AsPC 1 = experiment: as above; format: in vivo
In short: as §2

Mia Pa Ca 2 = experiment: as above; format: in vivo
In short: as §2

HCT 116 = experiment: as above; format: in vivo
In short: as §2

BXPC 3 = experiment: as above; format: in vivo
In short: as §2

H T29 = experiment: as above; format: in vivo; conditions: series 3, i.v., total 24 mg/kg, day 20
In short: as §2

| SMILES | pEC50 (HT-29) | pEC50 (H-460) | pEC50 (PC-3) | pEC50 (AsPC-1) | pEC50 (DU-145) | pEC50 (PANC-1) | pEC50 (MDA-MB-231) | pEC50 (HCT-116) | pEC50 (UM-UC-3) | pEC50 (MiaPaCa-2) | pEC50 (BxPC-3) | pEC50 (MCF-7) | pEC50 (Capan-2) | further results |
| --- | --- | --- | --- | --- | --- | --- | --- | --- | --- | --- | --- | --- | --- | --- |
| Cc1ccc(NCCCN2CCN(CCCNc3c4ccccc4nc4cccc([N+](=O)[O-])c34)CC2)c2c(=O)c3ccccc3[nH]c12 [C-1973, 1-[3-(4-methyl-9(10H)-acridono-1-yl)aminopropyl]-4-3′-[(1′-nitroacridin-1-yl)-aminopropyl]piperazine] | 7.64 | 8.30 | 7.32 | 7.10 | 7.70 | 7.57 | 7.55 | 7.72 | 8.02 | 7.80 | 7.23 | 6.95 |  | TGI [%] [100 − (ΔVT/ΔVC × 100] (MDA MB 231; single 1 mg/kg, total 8 mg/kg, day 50): 30%; TGI [%] [100 − (ΔVT/ΔVC × 100] (UM UC 3; single 2 mg/kg, total 14 mg/kg): 46%; TGI [%] [100 − (ΔVT/ΔVC × 100] (H 460; series 16, i.v., single 2 mg/kg, total 10 mg/kg, day 21): 42%; TGI [%] [100 − (ΔVT/ΔVC × 100] (PANC 1; series 31, i.v., single 2 mg/kg, total 16 mg/kg, day 37): 75%; TGI [%] [100 − (ΔVT/ΔVC × 100] (DU 145; series 13, i.v., single 4 mg/kg, total 32 mg/kg, day 63): 90%; TGI [%] [100 − (ΔVT/ΔVC × 100] (DU 145; series 18, i.v., single 1 mg/kg, total 8 mg/kg, day 33): 51% |
| CN(CCCNc1c2ccccc2nc2cccc([N+](=O)[O-])c12)CCCNc1ccc2ncn3c4ccccc4c(=O)c1c23 [C-2028, 9-{N-[(imidazo[4,5,1-de]-acridin-6-on-5-yl)aminopropyl]-N-methylaminopropylamino}-1′-nitroacridine] | 7.43 | 7.82 | 7.55 | 7.21 | 7.64 | 7.62 | 7.77 | 7.77 | 8.00 | 7.10 | 7.13 | 7.28 | 7.96 | TGI [%] [100 − (ΔVT/ΔVC × 100] (PC 3; series 12, i.p.): 30%; TGI [%] [100 − (ΔVT/ΔVC × 100] (MDA MB 231; single 2 mg/kg, total 16 mg/kg, day 25): 44%; TGI (AsPC 1; ASP-1, threshold activity): < 50%; TGI [%] [100 − (ΔVT/ΔVC × 100] (AsPC 1; series 23, i.v., single 6 mg/kg, total 48 mg/kg, day 46): 35%; TGI [%] [100 − (ΔVT/ΔVC × 100] (UM UC 3; single 6 mg/kg, total 42 mg/kg): 54%; TGI [%] [100 − (ΔVT/ΔVC × 100] (H 460; series 16, i.v., single 1 mg/kg, total 5 mg/kg, day 28): 31%; TGI (Mia Pa Ca 2; MiaPa Ca2, threshold activity): < 50%; TGI [%] [100 − (ΔVT/ΔVC × 100] (Mia Pa Ca 2; series 12, i.v., single 6 mg/kg, total 42 mg/kg, day 36): 52%; TGI [%] [100 − (ΔVT/ΔVC × 100] (Mia Pa Ca 2; series 28, i.v., single 2 mg/kg, total 8 mg/kg, day 11, *at least half of animals did not survive): 68* %; TGI (PANC 1; PANC-1 cancer, three consecutive experimental runs): 71% and 90% and 82%; TGI [%] [100 − (ΔVT/ΔVC × 100] (PANC 1; series 10, i.v., single 1 mg/kg, total 10 mg/kg, day 31): 71%; TGI [%] [100 − (ΔVT/ΔVC × 100] (PANC 1; series 14, i.v., single 4 mg/kg, total 36 mg/kg, day 45): 90%; TGI [%] [100 − (ΔVT/ΔVC × 100] (PANC 1; series 29, i.v., single 4 mg/kg, total 20 mg/kg, day 36): 59%; TGI [%] [100 − (ΔVT/ΔVC × 100] (PANC 1; series 32, i.v, single 2 mg/kg, total 16 mg/kg, day 40): 82%; TGI [%] [100 − (ΔVT/ΔVC × 100] (HCT 116; series 7, i.v., single 4 mg/kg, total 24 mg/kg, day 15): 34%; TGI (BXPC 3; BXPC-3, significant activity): 64%; TGI [%] [100 − (ΔVT/ΔVC × 100] (BXPC 3; series 21, i.v., single 6 mg/kg, total 30 mg/kg, day 37): 64%; TGI [%] [100 − (ΔVT/ΔVC × 100] (BXPC 3; series 33, i.v., single 4 mg/kg, total 32 mg/kg, day 36): 43%; TGI [%] [100 − (ΔVT/ΔVC × 100] (DU 145; series 13, i.v., single 4 mg/kg, total 32 mg/kg, day 40): 46% |
| O=c1c2cc(O)ccc2[nH]c2c([N+](=O)[O-])ccc(NCCCN3CCN(CCCNc4c5ccccc5nc5cccc([N+](=O)[O-])c45)CC3)c12 [C-1941] | 7.42 | 7.70 | 7.51 | 6.68 | 7.70 | 7.37 | 7.92 | 7.96 | 7.48 | 7.92 |  | 7.21 |  | TGI [%] [100 − (ΔVT/ΔVC × 100] (H 460; series 4, i.v., single 15 mg/kg, total 30 mg/kg, day 14): 24%; TGI [%] [100 − (ΔVT/ΔVC × 100] (Mia Pa Ca 2; series 12, i.p., single 4 mg/kg, total 32 mg/kg, day 26): 30%; TGI [%] [100 − (ΔVT/ΔVC × 100] (H T29; single 3 mg/kg): 26%; TGI [%] [100 − (ΔVT/ΔVC × 100] (H T29; single 4 mg/kg): 35%; TGI [%] [100 − (ΔVT/ΔVC × 100] (DU 145; series 2, i.p., single 4 mg/kg, total 24 mg/kg, day 35): 52% |
| O=c1c2cc(O)ccc2n2cnc3ccc(NCCCN4CCN(CCCNc5c6ccccc6nc6cccc([N+](=O)[O-])c56)CC4)c1c32 [C-2027, 1-[3-(8-hydroxy-imidazo[4,5,1-de]-acridin-6-on-5-yl)aminopropyl]-4-[3′-(1′-nitroacridin-1-yl)-aminopropyl]piperazine] | 7.09 | 7.77 | 7.46 | 6.72 | 7.70 | 7.62 | 7.72 | 7.70 | 7.74 | 7.68 | 6.79 | 7.21 | 7.37 | TGI [%] [100 − (ΔVT/ΔVC × 100] (UM UC 3; single 4 mg/kg, total 28 mg/kg): 47%; TGI [%] [100 − (ΔVT/ΔVC × 100] (Mia Pa Ca 2; series 12, i.v., single 2 mg/kg, total 16 mg/kg, day 26): 29%; TGI [%] [100 − (ΔVT/ΔVC × 100] (PANC 1; series 10, i.v., single 2 mg/kg, total 10 mg/kg, day 45): 83%; TGI [%] [100 − (ΔVT/ΔVC × 100] (PANC 1; series 14, i.v., single 1 mg/kg, total 10 mg/kg, day 45): 23%; TGI [%] [100 − (ΔVT/ΔVC × 100] (PANC 1; series 30, i.v., single 1 mg/kg, total 8 mg/kg, day 32, *at least half of animals did not survive): 51* %; TGI [%] [100 − (ΔVT/ΔVC × 100] (HCT 116; series 7, i.v., single 2.5 mg/kg, total 15 mg/kg, day 15): 15% |
| O=c1c2ccccc2[nH]c2c([N+](=O)[O-])ccc(NCCCN3CCN(CCCNc4c5ccccc5nc5cccc([N+](=O)[O-])c45)CC3)c12 [C-2031, 1-[3-(4-nitro-9(10H)-acridono-1-yl)aminopropyl]-4-[3′-(1′-nitroacridin-1-yl)-aminopropyl]piperazine] |  | 8.05 | 7.59 | 7.11 | 7.96 | 7.25 | 7.55 | 7.70 | 7.77 | 7.55 |  | 7.11 |  | TGI [%] [100 − (ΔVT/ΔVC × 100] (PC 3; series 15, i.v.): 30%; TGI [%] [100 − (ΔVT/ΔVC × 100] (H 460; series 6, i.v., single 8 mg/kg, total 48 mg/kg, day 23): 60%; TGI [%] [100 − (ΔVT/ΔVC × 100] (PANC 1; series 10, i.v., single 3 mg/kg, total 30 mg/kg, day 45): 72%; TGI [%] [100 − (ΔVT/ΔVC × 100] (PANC 1; series 14, i.v., single 1 mg/kg, total 10 mg/kg, day 37): 27%; TGI [%] [100 − (ΔVT/ΔVC × 100] (HCT 116; series 8, i.v., single 6 mg/kg, total 18 mg/kg, day 14, *at least half of animals did not survive): 52* %; TGI [%] [100 − (ΔVT/ΔVC × 100] (HCT 116; series 9, i.v., single 3 mg/kg, total 24 mg/kg, day 30): 34%; TGI [%] [100 − (ΔVT/ΔVC × 100] (DU 145; series 13, i.v., single 4 mg/kg, total 32 mg/kg, day 35): 77%; TGI [%] [100 − (ΔVT/ΔVC × 100] (DU 145; series 18, i.p., single 1 mg/kg, total 8 mg/kg, day 64): 81% |
